Experimental data: patent publication US8354547B2, “4β-amino podophyllotoxin congeners as anti tumour antibiotics a process for the preparation thereof” (Council of Scientific & Industrial Research, priority 2008, dated 2013)

Columns and labels:
[1] = system: Liver (HEP-2) cancer cell line; assay: SRB in vitro cytotoxicity assay, Liver HEP-2; format: cell-based, human
Protocol: (§1) Single cell suspension of the tumor cells grown in tissue culture were made, cells counted and cell count adjusted to 1×10^5 to 5×10^5 Ninetysix (96) well plates were seeded with this cell suspension, each well receiving 100 μl of it. The plate was then be incubated at 37° C. temperature in CO2 incubator for 24 hours. Drugs were added at appropriate concentrations after 24-hour, incubation followed by further incubation for 48 hours. Experiment was terminated by gently layering the cells in the wells with 30% TCA and plates were kept in refrigerator for 1 hour following which they were washed thoroughly with tap water, dried attained with 0.4% SRB in 1% acetic aid and finally, the bound SRB eluted with 10 mM tris. Absorbance was read at 540 nm, in the microtitre-plate reader. Optical density of drug-treated cells was compared with that of control cells and cell inhibition was calculated as percent values. […]

[2] = system: Neuroblastoma (IMR-32) cancer cell line; assay: SRB in vitro cytotoxicity assay, Neuroblastoma IMR-32; format: cell-based, human
Protocol: as §1

[3] = system: Breast (MCF-7) cancer cell line; assay: SRB in vitro cytotoxicity assay, Breast MCF-7; format: cell-based, human
Protocol: as §1

[4] = system: CNS (SK-N-SH) cancer cell line; assay: SRB in vitro cytotoxicity assay, CNS SK-N-SH; format: cell-based, human
Protocol: as §1

[5] = system: Colon (Colo-205) cancer cell line; assay: SRB in vitro cytotoxicity assay, Colon Colo-205; format: cell-based, human
Protocol: as §1

[6] = system: Colon (SW-620) cancer cell line; assay: SRB in vitro cytotoxicity assay, Colon SW-620; format: cell-based, human
Protocol: as §1

Topoisomerase-I = target: T1, Topoisomerase-I (Homo sapiens, UniProt P11387); assay: Topoisomerase-I relaxation assay; format: biochemical; settings: at 100 μM (FIG. 2)
T1 sequence (P11387 1-765): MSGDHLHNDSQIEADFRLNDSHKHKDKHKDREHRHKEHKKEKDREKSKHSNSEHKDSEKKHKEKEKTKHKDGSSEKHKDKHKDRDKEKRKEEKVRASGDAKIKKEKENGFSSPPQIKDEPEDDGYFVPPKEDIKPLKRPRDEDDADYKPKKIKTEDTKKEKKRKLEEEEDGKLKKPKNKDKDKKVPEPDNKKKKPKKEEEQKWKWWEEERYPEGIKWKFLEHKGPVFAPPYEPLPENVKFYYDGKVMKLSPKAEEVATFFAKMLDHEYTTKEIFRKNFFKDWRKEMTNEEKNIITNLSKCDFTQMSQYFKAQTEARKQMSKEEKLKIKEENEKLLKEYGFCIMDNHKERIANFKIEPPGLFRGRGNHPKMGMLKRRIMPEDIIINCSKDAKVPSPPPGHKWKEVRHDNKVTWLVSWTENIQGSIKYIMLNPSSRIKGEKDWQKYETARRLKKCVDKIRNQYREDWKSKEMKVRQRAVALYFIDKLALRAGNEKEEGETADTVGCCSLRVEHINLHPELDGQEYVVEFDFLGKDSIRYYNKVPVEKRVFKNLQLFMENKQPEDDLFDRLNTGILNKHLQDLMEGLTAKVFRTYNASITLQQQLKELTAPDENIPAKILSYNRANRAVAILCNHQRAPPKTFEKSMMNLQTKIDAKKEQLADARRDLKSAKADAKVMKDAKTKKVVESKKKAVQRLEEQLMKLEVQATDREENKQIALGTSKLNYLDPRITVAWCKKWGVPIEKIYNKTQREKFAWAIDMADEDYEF
Protocol: Apart from this, some of these analogues were evaluated for Topoisomerase-I relaxation, Topoisomerase-II inhibition, DNA laddering assay and DNA cell cycle analysis. Compounds 3c, 4c, 3d and 4d were analyzed for topoisomerase-I assay at 100 μM (FIG. 2) only compound 3d was found active and rest were not active. Compounds 3d, 4d and 4c were analyzed for topoisomerase inhibition assay.
Reaction was assembled in micro centrifuge tube that contains super coiled DNA 250 ng/μl & Topoisomerase-I (4 units) in assay buffer (10 mM Tris-HCl, pH 7.9, 0.15 M NaCl, 0.1% BSA, and 5.0 mM (beta)-mercaptoethanol). In each reaction 2 μl sample was added then volume was made up to 20 μl with water and then incubated at 37° C. Reaction was terminated by addition of 2 μl of 10% SDS. Each sample tube was treated with proteinase K and extracted once with chloroform: isoamyl alcohol. Products were resolved by 0.8% agarose gel electrophoresis in TAE buffer (40 mM tris-acetate, pH 8.0, and 1 mM EDTA) and stained with 0.5 μg/ml ethedium bromide (EtBr).

Topoisomerase-II = assay: DNA Topoisomerase-II inhibition assay; format: biochemical; settings: FIG. 3
[7] = concentration 1 × 10^−5 (μM/mL)
[8] = concentration 1 × 10^−6 (μM/mL), control drug

COc1cc([C@@H]2c3cc4c(cc3[C@@H](Nc3ccc5ccc6cccc7ccc3c5c67)[C@@H]3COC(=O)[C@H]23)OCO4)cc(OC)c1OC [Compound 3c, 4β-(1″-Pyrenylamino)-4-desoxypodophyllotoxin]
Growth Inhibition(%) Liver HEP-2 [1, 7]: 66%
Growth Inhibition(%) Neuroblastma IMR-32 [2, 7]: 0%
Growth Inhibition(%) Breast MCF-7 [3, 7]: 0%
Growth Inhibition(%) CNS SK-N-SH [4, 7]: 59%
Growth Inhibition(%) Colon Colo-205 [5, 7]: 64%
Growth Inhibition(%) Colon SW-620 [6, 7]: 29%
activity in topoisomerase-I assay (Topoisomerase-I): not active

COc1cc([C@@H]2c3cc4c(cc3[C@@H](Nc3ccc(C(=O)c5ccc(F)cc5)cc3)[C@@H]3COC(=O)[C@H]23)OCO4)cc(OC)c1O [Compound 4e, 4′-O-Demethyl-4β-[4″-(4″-fluorobenzoyl)anilino]-4-desoxypodophyllotoxin]
Growth Inhibition(%) Liver HEP-2 [1, 7]: 51%
Growth Inhibition(%) Neuroblastma IMR-32 [2, 7]: 11%
Growth Inhibition(%) Breast MCF-7 [3, 7]: 39%
Growth Inhibition(%) CNS SK-N-SH [4, 7]: 91%
Growth Inhibition(%) Colon Colo-205 [5, 7]: 77%
Growth Inhibition(%) Colon SW-620 [6, 7]: 42%

COc1cc([C@@H]2c3cc4c(cc3[C@@H](Nc3cccc5cc6ccccc6cc35)[C@@H]3COC(=O)[C@H]23)OCO4)cc(OC)c1O [Compound 4a, 4′-O-Demethyl-4β-(1″-anthrylamino)-4-desoxypodophyllotoxin]
Growth Inhibition(%) Liver HEP-2 [1, 7]: 58%
Growth Inhibition(%) Neuroblastma IMR-32 [2, 7]: 0%
Growth Inhibition(%) Breast MCF-7 [3, 7]: 0%
Growth Inhibition(%) CNS SK-N-SH [4, 7]: 38%
Growth Inhibition(%) Colon Colo-205 [5, 7]: 39%
Growth Inhibition(%) Colon SW-620 [6, 7]: 22%

COc1cc([C@@H]2c3cc4c(cc3[C@@H](Nc3ccc(C(=O)c5ccc(N(CCCl)CCCl)cc5)cc3)[C@@H]3COC(=O)[C@H]23)OCO4)cc(OC)c1OC [Compound 3f, 4β-(4″-{4″-[Di(2″-chloroethyl)amino]benzoyl}anilino)-4-desoxypodophyllotoxin]
Growth Inhibition(%) Liver HEP-2 [1, 7]: 45%
Growth Inhibition(%) Neuroblastma IMR-32 [2, 7]: 0%
Growth Inhibition(%) Breast MCF-7 [3, 7]: 40%
Growth Inhibition(%) CNS SK-N-SH [4, 7]: 83%
Growth Inhibition(%) Colon Colo-205 [5, 7]: 74%
Growth Inhibition(%) Colon SW-620 [6, 7]: 15%

COc1cc([C@@H]2c3cc4c(cc3[C@@H](Nc3ccc5ccc6cccc7ccc3c5c67)[C@@H]3COC(=O)[C@H]23)OCO4)cc(OC)c1O [Compound 4c, 4′-O-Demethyl-4β-(1″-pyrenylamino)-4-desoxypodophyllotoxin]
Growth Inhibition(%) Liver HEP-2 [1, 7]: 39%
Growth Inhibition(%) Neuroblastma IMR-32 [2, 7]: 0%
Growth Inhibition(%) Breast MCF-7 [3, 7]: 0%
Growth Inhibition(%) CNS SK-N-SH [4, 7]: 40%
Growth Inhibition(%) Colon Colo-205 [5, 7]: 40%
Growth Inhibition(%) Colon SW-620 [6, 7]: 7%
activity in topoisomerase-I assay (Topoisomerase-I): not active
activity in topoisomerase inhibition assay (Topoisomerase-II) (Topoisomerase-II): None of the compounds are active

COc1cc([C@@H]2c3cc4c(cc3[C@@H](Nc3cc5c6ccccc6ccc5c5ccccc35)[C@@H]3COC(=O)[C@H]23)OCO4)cc(OC)c1O [Compound 4d, 4′-O-Demethyl-4β-(6″-chrycenylamino)-4-desoxypodophyllotoxin]
Growth Inhibition(%) Liver HEP-2 [1, 7]: 76%
Growth Inhibition(%) Neuroblastma IMR-32 [2, 7]: 0%
Growth Inhibition(%) Breast MCF-7 [3, 7]: 0%
Growth Inhibition(%) CNS SK-N-SH [4, 7]: 58%
Growth Inhibition(%) Colon Colo-205 [5, 7]: 58%
Growth Inhibition(%) Colon SW-620 [6, 7]: 17%
activity in topoisomerase-I assay (Topoisomerase-I): not active
activity in topoisomerase inhibition assay (Topoisomerase-II) (Topoisomerase-II): None of the compounds are active

COc1cc([C@@H]2c3cc4c(cc3[C@@H](Nc3cccc5c3Cc3ccccc3-5)[C@@H]3COC(=O)[C@H]23)OCO4)cc(OC)c1OC [Compound 3b, 4β-(1″-Fluorenylamino)-4-desoxypodophyllotoxin]
Growth Inhibition(%) Liver HEP-2 [1, 7]: 77%
Growth Inhibition(%) Neuroblastma IMR-32 [2, 7]: 0%
Growth Inhibition(%) Breast MCF-7 [3, 7]: 4%
Growth Inhibition(%) CNS SK-N-SH [4, 7]: 44%
Growth Inhibition(%) Colon Colo-205 [5, 7]: 49%
Growth Inhibition(%) Colon SW-620 [6, 7]: 11%

COc1cc([C@@H]2c3cc4c(cc3[C@@H](Nc3cccc5cc6ccccc6cc35)[C@@H]3COC(=O)[C@H]23)OCO4)cc(OC)c1OC [Compound 3a, 4β-(1″-Anthrylamino)-4-desoxypodophyllotoxin]
Growth Inhibition(%) Liver HEP-2 [1, 7]: 46%
Growth Inhibition(%) Neuroblastma IMR-32 [2, 7]: 16%
Growth Inhibition(%) Breast MCF-7 [3, 7]: 5%
Growth Inhibition(%) CNS SK-N-SH [4, 7]: 65%
Growth Inhibition(%) Colon Colo-205 [5, 7]: 55%
Growth Inhibition(%) Colon SW-620 [6, 7]: 25%

COc1cc([C@@H]2c3cc4c(cc3[C@@H](Nc3ccc(C(=O)c5ccc(F)cc5)cc3)[C@@H]3COC(=O)[C@H]23)OCO4)cc(OC)c1OC [Compound 3e, 4β-[4″-(4″-Fluorobenzoyl)anilino]-4-desoxypodophyllotoxin]
Growth Inhibition(%) Liver HEP-2 [1, 7]: 0%
Growth Inhibition(%) Neuroblastma IMR-32 [2, 7]: 0%
Growth Inhibition(%) Breast MCF-7 [3, 7]: 30%
Growth Inhibition(%) CNS SK-N-SH [4, 7]: 34%
Growth Inhibition(%) Colon Colo-205 [5, 7]: 68%
Growth Inhibition(%) Colon SW-620 [6, 7]: 10%

COc1cc([C@@H]2c3cc4c(cc3[C@@H](Nc3cccc5c3Cc3ccccc3-5)[C@@H]3COC(=O)[C@H]23)OCO4)cc(OC)c1O [Compound 4b, 4′-O-Demethyl-4β-(1″-fluorenylamino)-4-desoxypodophyllotoxin]
Growth Inhibition(%) Liver HEP-2 [1, 7]: 0%
Growth Inhibition(%) Neuroblastma IMR-32 [2, 7]: 0%
Growth Inhibition(%) Breast MCF-7 [3, 7]: 39%
Growth Inhibition(%) CNS SK-N-SH [4, 7]: 50%
Growth Inhibition(%) Colon Colo-205 [5, 7]: 55%
Growth Inhibition(%) Colon SW-620 [6, 7]: 15%

COc1cccc2c1C(=O)c1c(O)c3c(c(O)c1C2=O)C[C@@](O)(C(=O)CO)C[C@@H]3O[C@H]1C[C@H](N)[C@H](O)[C@H](C)O1 [ADR, Adriamycin, reference compound]
Growth Inhibition(%) Liver HEP-2 [1, 8]: 23%
Growth Inhibition(%) Neuroblastma IMR-32 [2, 8]: 0%
Growth Inhibition(%) Breast MCF-7 [3, 8]: 23%
Growth Inhibition(%) CNS SK-N-SH [4, 8]: 36%
Growth Inhibition(%) Colon Colo-205 [5, 8]: 18%
Growth Inhibition(%) Colon SW-620 [6, 8]: 21%
